Test results taken from PubChem BioAssay (NCI).
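Briefly, cells in 96-well plates were exposed to five compound concentrations for 48 h, and endpoints were estimated by linear interpolation. Definition used: TGI = concentration required for complete inhibition of growth.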

Assays:
Assay in all cases: NCI-60 cell line screen, 48 h
786-0 renal = system: 786-0 renal
A498 renal = system: A498 renal
A549 NSCLC = system: A549 NSCLC
ACHN renal = system: ACHN renal
BT-549 breast = system: BT-549 breast
CAKI-1 renal = system: CAKI-1 renal
CCRF-CEM leukemia = system: CCRF-CEM leukemia
COLO 205 colon = system: COLO 205 colon
DU-145 prostate = system: DU-145 prostate
EKVX NSCLC = system: EKVX NSCLC
HCC-2998 colon = system: HCC-2998 colon
HCT-116 colon = system: HCT-116 colon
HCT-15 colon = system: HCT-15 colon
HL-60(TB) leukemia = system: HL-60(TB) leukemia
HOP-62 NSCLC = system: HOP-62 NSCLC
HOP-92 NSCLC = system: HOP-92 NSCLC
HS 578T breast = system: HS 578T breast
HT29 colon = system: HT29 colon
IGROV1 ovarian = system: IGROV1 ovarian
K-562 leukemia = system: K-562 leukemia
KM12 colon = system: KM12 colon
LOX IMVI melanoma = system: LOX IMVI melanoma
M14 melanoma = system: M14 melanoma
MALME-3M melanoma = system: MALME-3M melanoma
MCF7 breast = system: MCF7 breast
MDA-MB-231 breast = system: MDA-MB-231 breast
MDA-MB-435 = system: MDA-MB-435
MDA-N = system: MDA-N
MOLT-4 leukemia = system: MOLT-4 leukemia
NCI-H226 lung = system: NCI-H226 lung
NCI-H23 lung = system: NCI-H23 lung
NCI-H522 lung = system: NCI-H522 lung
NCI/ADR-RES ovarian = system: NCI/ADR-RES ovarian
OVCAR-3 ovarian = system: OVCAR-3 ovarian
OVCAR-4 ovarian = system: OVCAR-4 ovarian
OVCAR-5 ovarian = system: OVCAR-5 ovarian
OVCAR-8 ovarian = system: OVCAR-8 ovarian
PC-3 prostate = system: PC-3 prostate
RPMI-8226 leukemia = system: RPMI-8226 leukemia
RXF 393 renal = system: RXF 393 renal
SF-268 CNS = system: SF-268 CNS
SF-295 CNS = system: SF-295 CNS
SK-MEL-2 melanoma = system: SK-MEL-2 melanoma
SK-MEL-28 melanoma = system: SK-MEL-28 melanoma
SK-MEL-5 melanoma = system: SK-MEL-5 melanoma
SK-OV-3 ovarian = system: SK-OV-3 ovarian
SN12C renal = system: SN12C renal
SNB-75 CNS = system: SNB-75 CNS
SR leukemia = system: SR leukemia
SW-620 colon = system: SW-620 colon
T-47D breast = system: T-47D breast
TK-10 renal = system: TK-10 renal
U251 CNS = system: U251 CNS
UACC-257 melanoma = system: UACC-257 melanoma
UACC-62 melanoma = system: UACC-62 melanoma
UO-31 renal = system: UO-31 renal
NCI-H460 lung = system: NCI-H460 lung
SNB-19 CNS = system: SNB-19 CNS
SF-539 CNS = system: SF-539 CNS

SMILES: N#C/C(=C\c1ccccc1)C(=O)Nc1nnc(-c2ccccc2)o1
- TGI (786-0 renal): > 100 µM
- TGI (A498 renal): 72.7 µM
- TGI (A549 NSCLC): > 100 µM
- TGI (ACHN renal): > 100 µM
- TGI (BT-549 breast): > 100 µM
- TGI (CAKI-1 renal): 73.2 µM
- TGI (CCRF-CEM leukemia): 50.6 µM
- TGI (COLO 205 colon): 80.4 µM
- TGI (DU-145 prostate): > 100 µM
- TGI (EKVX NSCLC): > 100 µM
- TGI (HCC-2998 colon): > 100 µM
- TGI (HCT-116 colon): > 100 µM
- TGI (HCT-15 colon): > 100 µM
- TGI (HL-60(TB) leukemia): 40.9 µM
- TGI (HOP-62 NSCLC): > 100 µM
- TGI (HOP-92 NSCLC): > 100 µM
- TGI (HS 578T breast): > 100 µM
- TGI (HT29 colon): > 100 µM
- TGI (IGROV1 ovarian): > 100 µM
- TGI (K-562 leukemia): > 100 µM
- TGI (KM12 colon): > 100 µM
- TGI (LOX IMVI melanoma): > 100 µM
- TGI (M14 melanoma): > 100 µM
- TGI (MALME-3M melanoma): > 100 µM
- TGI (MCF7 breast): > 100 µM
- TGI (MDA-MB-231 breast): > 100 µM
- TGI (MDA-MB-435): > 100 µM
- TGI (MDA-N): > 100 µM
- TGI (MOLT-4 leukemia): > 100 µM
- TGI (NCI-H226 lung): > 100 µM
- TGI (NCI-H23 lung): > 100 µM
- TGI (NCI-H522 lung): > 100 µM
- TGI (NCI/ADR-RES ovarian): > 100 µM
- TGI (OVCAR-3 ovarian): 66.3 µM
- TGI (OVCAR-4 ovarian): > 100 µM
- TGI (OVCAR-5 ovarian): > 100 µM
- TGI (OVCAR-8 ovarian): > 100 µM
- TGI (PC-3 prostate): > 100 µM
- TGI (RPMI-8226 leukemia): 62.6 µM
- TGI (RXF 393 renal): > 100 µM
- TGI (SF-268 CNS): > 100 µM
- TGI (SF-295 CNS): > 100 µM
- TGI (SK-MEL-2 melanoma): > 100 µM
- TGI (SK-MEL-28 melanoma): > 100 µM
- TGI (SK-MEL-5 melanoma): 38.3 µM
- TGI (SK-OV-3 ovarian): > 100 µM
- TGI (SN12C renal): > 100 µM
- TGI (SNB-75 CNS): > 100 µM
- TGI (SR leukemia): 93.2 µM
- TGI (SW-620 colon): > 100 µM
- TGI (T-47D breast): > 100 µM
- TGI (TK-10 renal): > 100 µM
- TGI (U251 CNS): > 100 µM
- TGI (UACC-257 melanoma): 87.4 µM
- TGI (UACC-62 melanoma): 53.7 µM
- TGI (UO-31 renal): > 100 µM

SMILES: Cc1cc(C)c(C2=NOC(c3ccccc3)(c3cc(=O)n(-c4ccccc4)s3)O2)c(C)c1 (centres undefined)
- TGI (786-0 renal): 41.3 µM
- TGI (A498 renal): > 100 µM
- TGI (A549 NSCLC): > 100 µM
- TGI (ACHN renal): 52.2 µM
- TGI (BT-549 breast): 52.4 µM
- TGI (CAKI-1 renal): 33.7 µM
- TGI (CCRF-CEM leukemia): > 100 µM
- TGI (COLO 205 colon): 63.4 µM
- TGI (DU-145 prostate): > 100 µM
- TGI (EKVX NSCLC): 50.2 µM
- TGI (HCC-2998 colon): > 100 µM
- TGI (HCT-116 colon): > 100 µM
- TGI (HCT-15 colon): 41 µM
- TGI (HL-60(TB) leukemia): > 100 µM
- TGI (HOP-62 NSCLC): > 100 µM
- TGI (HOP-92 NSCLC): 62.5 µM
- TGI (HS 578T breast): > 100 µM
- TGI (HT29 colon): 41.2 µM
- TGI (IGROV1 ovarian): > 100 µM
- TGI (K-562 leukemia): > 100 µM
- TGI (KM12 colon): > 100 µM
- TGI (LOX IMVI melanoma): 30.7 µM
- TGI (M14 melanoma): 76.8 µM
- TGI (MALME-3M melanoma): 40.1 µM
- TGI (MCF7 breast): 37.2 µM
- TGI (MDA-MB-231 breast): 95 µM
- TGI (MDA-MB-435): > 100 µM
- TGI (MDA-N): > 100 µM
- TGI (MOLT-4 leukemia): > 100 µM
- TGI (NCI-H226 lung): 57.1 µM
- TGI (NCI-H23 lung): 53.4 µM
- TGI (NCI-H460 lung): > 100 µM
- TGI (NCI-H522 lung): 35.8 µM
- TGI (NCI/ADR-RES ovarian): 68.1 µM
- TGI (OVCAR-4 ovarian): > 100 µM
- TGI (OVCAR-5 ovarian): 40.9 µM
- TGI (OVCAR-8 ovarian): 36.5 µM
- TGI (PC-3 prostate): > 100 µM
- TGI (RPMI-8226 leukemia): > 100 µM
- TGI (RXF 393 renal): 33.3 µM
- TGI (SF-268 CNS): > 100 µM
- TGI (SF-295 CNS): > 100 µM
- TGI (SK-MEL-2 melanoma): 89.5 µM
- TGI (SK-MEL-28 melanoma): 94.4 µM
- TGI (SK-MEL-5 melanoma): > 100 µM
- TGI (SK-OV-3 ovarian): > 100 µM
- TGI (SN12C renal): > 100 µM
- TGI (SNB-19 CNS): > 100 µM
- TGI (SNB-75 CNS): > 100 µM
- TGI (SR leukemia): > 100 µM
- TGI (SW-620 colon): > 100 µM
- TGI (T-47D breast): 44 µM
- TGI (TK-10 renal): 77.1 µM
- TGI (U251 CNS): 66.4 µM
- TGI (UACC-257 melanoma): > 100 µM
- TGI (UACC-62 melanoma): 51.5 µM
- TGI (UO-31 renal): 47.1 µM

SMILES: O=C(NCCCCCCCCNC(=O)c1cc(-c2ccccc2)nc2ccccc12)c1cc(-c2ccccc2)nc2ccccc12
- TGI (786-0 renal): > 100 µM
- TGI (A498 renal): > 100 µM
- TGI (A549 NSCLC): > 100 µM
- TGI (ACHN renal): > 100 µM
- TGI (BT-549 breast): > 100 µM
- TGI (CAKI-1 renal): > 100 µM
- TGI (CCRF-CEM leukemia): > 100 µM
- TGI (COLO 205 colon): > 100 µM
- TGI (DU-145 prostate): > 100 µM
- TGI (EKVX NSCLC): > 100 µM
- TGI (HCT-116 colon): > 100 µM
- TGI (HCT-15 colon): > 100 µM
- TGI (HL-60(TB) leukemia): > 100 µM
- TGI (HOP-62 NSCLC): > 100 µM
- TGI (HOP-92 NSCLC): > 100 µM
- TGI (HS 578T breast): > 100 µM
- TGI (HT29 colon): > 100 µM
- TGI (IGROV1 ovarian): > 100 µM
- TGI (K-562 leukemia): > 100 µM
- TGI (LOX IMVI melanoma): > 100 µM
- TGI (M14 melanoma): > 100 µM
- TGI (MALME-3M melanoma): > 100 µM
- TGI (MCF7 breast): > 100 µM
- TGI (MDA-MB-231 breast): > 100 µM
- TGI (MDA-MB-435): > 100 µM
- TGI (MDA-N): > 100 µM
- TGI (MOLT-4 leukemia): > 100 µM
- TGI (NCI-H226 lung): > 100 µM
- TGI (NCI-H23 lung): > 100 µM
- TGI (NCI-H460 lung): > 100 µM
- TGI (NCI-H522 lung): > 100 µM
- TGI (NCI/ADR-RES ovarian): > 100 µM
- TGI (OVCAR-3 ovarian): > 100 µM
- TGI (OVCAR-4 ovarian): > 100 µM
- TGI (OVCAR-5 ovarian): > 100 µM
- TGI (OVCAR-8 ovarian): > 100 µM
- TGI (PC-3 prostate): > 100 µM
- TGI (RPMI-8226 leukemia): > 100 µM
- TGI (RXF 393 renal): 84.4 µM
- TGI (SF-268 CNS): > 100 µM
- TGI (SF-295 CNS): > 100 µM
- TGI (SF-539 CNS): > 100 µM
- TGI (SK-MEL-28 melanoma): > 100 µM
- TGI (SK-MEL-5 melanoma): > 100 µM
- TGI (SK-OV-3 ovarian): > 100 µM
- TGI (SN12C renal): > 100 µM
- TGI (SNB-19 CNS): > 100 µM
- TGI (SNB-75 CNS): > 100 µM
- TGI (SR leukemia): > 100 µM
- TGI (SW-620 colon): > 100 µM
- TGI (T-47D breast): > 100 µM
- TGI (TK-10 renal): > 100 µM
- TGI (U251 CNS): > 100 µM
- TGI (UACC-257 melanoma): > 100 µM
- TGI (UACC-62 melanoma): > 100 µM
- TGI (UO-31 renal): > 100 µM
